# Test results: EP3858439A1 (priority 2020, dated 2021)
# Where a name gives a salt, the structure may show the parent alone.
# Molecular target: T1, human µ-opioid receptor (Homo sapiens, UniProt P35372)
# T1 construct: expressed in transfected cells; host or cells: CHO-K1
# Assay: Binding assay to human µ-opioid receptor ([3H]-DAMGO displacement)
# Conditions: not given
# Method: Binding assay to human µ-opioid receptor
# Transfected CHO-K1 cell membranes (20 µg) were incubated with [^3H]-DAMGO (1 nM) in assay buffer containing Tris-HCl 50 mM, MgCl2 5 mM at pH 7.4.
# Plates were incubated at 27 °C for 60 min. After the incubation period, the reaction mixture was then transferred to MultiScreen HTS, FC plates (Millipore), filtered and plates were washed 3 times with ice-cold 10 mM Tris-HCl (pH 7.4).
# Filters were dried and counted at approximately 40% efficiency in a MicroBeta scintillation counter (Perkin-Elmer) using EcoScint liquid scintillation cocktail.
# T1 sequence (P35372 whole entry): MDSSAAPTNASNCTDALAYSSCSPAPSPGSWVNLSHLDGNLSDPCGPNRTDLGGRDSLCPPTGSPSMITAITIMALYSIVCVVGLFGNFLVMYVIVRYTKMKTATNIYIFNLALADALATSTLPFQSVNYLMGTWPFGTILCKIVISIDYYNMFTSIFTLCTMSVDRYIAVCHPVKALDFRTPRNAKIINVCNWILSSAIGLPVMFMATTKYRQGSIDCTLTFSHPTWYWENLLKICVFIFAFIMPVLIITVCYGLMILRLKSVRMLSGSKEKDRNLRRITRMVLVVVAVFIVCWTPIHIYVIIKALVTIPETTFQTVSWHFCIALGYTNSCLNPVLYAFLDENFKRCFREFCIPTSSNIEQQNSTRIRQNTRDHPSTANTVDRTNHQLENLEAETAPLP
row,SMILES,Ki
1,"CN(C)C1(c2ccccc2)CCN(C(=O)[C@@H](CN)[C@@H]2CCCc3ccccc32)CC1 (racemic) [Example 77, (RS)-3-Amino-1-(4-(dimethylamino)-4-phenylpiperidin-1-yl)-2-((SR)-1,2,3,4-tetrahydronaphthalen-1-yl)propan-1-one]",< 0.1 µM
2,"CN(C)C1(c2ccccc2)CCN(C(=O)[C@@H](CN)[C@H]2CCCc3ccccc32)CC1 (racemic) [Example 78, (RS)-3-amino-1-(4-(dimethylamino)-4-phenylpiperidin-1-yl)-2-((RS)-1,2,3,4-tetrahydronaphthalen-1-yl)propan-1-one]",< 0.1 µM
3,"CN(C)C1(c2ccccc2)CCN(C(=O)[C@H](CN)C(C)(C)c2ccccc2)CC1 [Example 5, (S)-2-(aminomethyl)-1-(4-(dimethylamino)-4-phenylpiperidin-1-yl)-3-methyl-3-phenylbutan-1-one]",< 0.1 µM
4,"CNC1(c2ccccc2)CCN(C(=O)[C@H](CN)[C@@H](C)c2ccccc2)CC1 [Example 9, (2S,3R)-2-(aminomethyl)-1-(4-(methylamino)-4-phenylpiperidin-1-yl)-3-phenylbutan-1-one]",< 0.1 µM
5,"CN(C)C1(c2ccccc2)CCN(C(=O)C(CN)Cc2ccccc2)CC1 (stereo not shown) [Example 28, 3-amino-2-benzyl-1-(4-(dimethylamino)-4-phenylpiperidin-1-yl)propan-1-one dihydrochloride]",< 0.1 µM
6,"CCNCC(Cc1ccccc1)C(=O)N1CCC(c2ccccc2)(N(C)C)CC1 (stereo not shown) [Example 30, 2-benzyl-1-(4-(dimethylamino)-4-phenylpiperidin-1-yl)-3-(ethylamino)propan-1-one dihydrochloride]",< 0.1 µM
7,"CNCCC(Cc1ccccc1)C(=O)N1CCC(c2ccccc2)(N(C)C)CC1 (stereo not shown) [Example 31, 2-benzyl-1-(4-(dimethylamino)-4-phenylpiperidin-1-yl)-4-(methylamino)butan-1-one dihydrochloride]",0.1 to 0.5 µM
8,"CNCC(Cc1ccccc1)C(=O)N1CCC(c2cccc(O)c2)(N(C)C)CC1 (stereo not shown) [Example 34, 2-benzyl-1-(4-(dimethylamino)-4-(3-hydroxyphenyl)piperidin-1-yl)-3-(methylamino)propan-1-one dihydrochloride]",< 0.1 µM
9,"CNCC(Cc1ccccc1)C(=O)N1CCC(NC)(c2cccc(O)c2)CC1 (stereo not shown) [Example 44, 2-benzyl-1-(4-(3-hydroxyphenyl)-4-(methylamino)piperidin-1-yl)-3-(methylamino)propan-1-one dihydrochloride]",< 0.1 µM
10,"CNCC(Cc1cccc(F)c1)C(=O)N1CCC(c2ccccc2)(N(C)C)CC1 (stereo not shown) [Example 52, 1-(4-(dimethylamino)-4-phenylpiperidin-1-yl)-2-(3-fluorobenzyl)-3-(methylamino) propan-1-one]",< 0.1 µM
11,"CNCC(Cc1ccccc1C#N)C(=O)N1CCC(c2ccccc2)(N(C)C)CC1 (stereo not shown) [Example 55, 2-(3-(4-(dimethylamino)-4-phenylpiperidin-1-yl)-2-((methylamino)methyl)-3-oxopropyl)benzonitrile dihydrochloride]",0.1 to 0.5 µM

# Same assay, conditions: Table 2; transfected CHO-K1 cell membranes, [3H]-DAMGO 1 nM, 60 min at 27 °C; read-out: Binding µ
row,SMILES,Ki
1,"CNC[C@@H](C(=O)N1CCC(c2ccccc2)(N(C)C)CC1)[C@@H](C)c1ccccc1 [Example 1, (2S,3R)-1-(4-(Dimethylamino)-4-phenylpiperidin-1-yl)-2-((methylamino)methyl)-3-phenylbutan-1-one dihydrochloride]",< 0.1 µM
2,"CNC[C@@H](C(=O)N1CCC(c2ccc(F)cc2)(N(C)C)CC1)[C@@H](C)c1ccccc1 [Example 2, (2S,3R)-1-(4-(dimethylamino)-4-(4-fluorophenyl)piperidin-1-yl)-2-((methylamino)methyl)-3-phenylbutan-1-one]",< 0.1 µM
3,"CNC[C@@H](C(=O)N1CCC(c2cccc(F)c2)(N(C)C)CC1)[C@@H](C)c1ccccc1 [Example 3, (2S,3R)-1-(4-(dimethylamino)-4-(3-fluorophenyl)piperidin-1-yl)-2-((methylamino)methyl)-3-phenylbutan-1-one]",< 0.1 µM
4,"CNC[C@@H](C(=O)N1CCC(NC)(c2ccccc2)CC1)[C@@H](C)c1ccccc1 [Example 4, (2S,3R)-1-(4-(methylamino)-4-phenylpiperidin-1-yl)-2-((methylamino)methyl)-3-phenylbutan-1-one]",0.1 to 0.5 µM
5,"CC[C@@H](c1ccccc1)[C@@H](CN)C(=O)N1CCC(NC)(c2ccccc2)CC1 [Example 6, (2S,3R)-2-(aminomethyl)-1-(4-(methylamino)-4-phenylpiperidin-1-yl)-3-phenylpentan-1-one dihydrochloride]",< 0.1 µM
6,"C[C@@H](c1ccccc1)[C@@H](CN)C(=O)N1CCC(c2ccccc2)(N(C)C)CC1 [Example 7, (2S,3R)-2-(aminomethyl)-1-(4-(dimethylamino)-4-phenylpiperidin-1-yl)-3-phenylbutan-1-one dihydrochloride]",< 0.1 µM
7,"CC[C@@H](c1ccccc1)[C@@H](CN)C(=O)N1CCC(c2ccccc2)(N(C)C)CC1 [Example 8, (2S,3R)-2-(aminomethyl)-1-(4-(dimethylamino)-4-phenylpiperidin-1-yl)-3-phenylpentan-1-one dihydrochloride]",< 0.1 µM
8,"CC[C@@H](c1ccccc1)[C@@H](CN)C(=O)N1CC(c2ccccc2)(N(C)C)C1 [Example 10, (2S,3R)-2-(aminomethyl)-1-(3-(dimethylamino)-3-phenylazetidin-1-yl)-3-phenylpentan-1-one]",> 0.5 µM
9,"CC[C@@H](c1cccc(F)c1)[C@@H](CN)C(=O)N1CCC(NC)(c2ccccc2)CC1 [Example 11, (2S,3R)-2-(aminomethyl)-3-(3-fluorophenyl)-1-(4-(methylamino)-4-phenylpiperidin-1-yl)pentan-1-one]",< 0.1 µM
10,"CNC[C@@H](C(=O)N1CCC(c2ccc(OC)cc2)(N(C)C)CC1)[C@@H](C)c1ccccc1 [Example 12, (2S,3R)-1-(4-(dimethylamino)-4-(4-methoxyphenyl)piperidin-1-yl)-2-((methylamino)methyl)-3-phenylbutan-1-one]",< 0.1 µM
11,"CC[C@@H](c1ccccc1)[C@@H](CNC)C(=O)N1CCC(c2ccccc2)(N(C)C)CC1 [Example 13, (2S,3R)-1-(4-(dimethylamino)-4-phenylpiperidin-1-yl)-2-((methylamino)methyl)-3-phenylpentan-1-one dihydrochloride]",< 0.1 µM
12,"CNC[C@@H](C(=O)N1CCC(c2ccccc2)(N(C)C)CC1)[C@@H](C)c1ccccc1F [Example 14, (2S,3R)-1-(4-(dimethylamino)-4-phenylpiperidin-1-yl)-3-(2-fluorophenyl)-2-((methylamino)methyl)butan-1-one dihydrochloride]",0.1 to 0.5 µM
13,"CNC[C@@H](C(=O)N1CCC(c2ccccc2)(N(C)C)CC1)[C@@H](C)c1cccc(F)c1 [Example 15, (2S,3R)-1-(4-(dimethylamino)-4-phenylpiperidin-1-yl)-3-(3-fluorophenyl)-2-((methylamino)methyl)butan-1-one]",< 0.1 µM
14,"CNC[C@@H](C(=O)N1CCC(c2cccc(O)c2)(N(C)C)CC1)[C@@H](C)c1ccccc1 [Example 16, (2S,3R)-1-(4-(dimethylamino)-4-(3-hydroxyphenyl)piperidin-1-yl)-2-((methylamino)methyl)-3-phenylbutan-1-one dihydrochloride]",< 0.1 µM
15,"CC[C@@H](c1ccccc1)[C@@H](CNC)C(=O)N1CCC(NC)(c2ccccc2)CC1 [Example 17, (2S,3R)-1-(4-(methylamino)-4-phenylpiperidin-1-yl)-2-((methylamino)methyl)-3-phenylpentan-1-one dihydrochloride]",< 0.1 µM
16,"CC[C@@H](c1ccccc1)[C@@H](CNC)C(=O)N1CC(c2ccccc2)(N(C)C)C1 [Example 19, (2S,3R)-1-(3-(dimethylamino)-3-phenylazetidin-1-yl)-2-((methylamino)methyl)-3-phenylpentan-1-one dihydrochloride]",> 0.5 µM
17,"CC[C@@H](c1cccc(F)c1)[C@@H](CNC)C(=O)N1CCC(NC)(c2ccccc2)CC1 [Example 20, (2S,3R)-3-(3-fluorophenyl)-1-(4-(methylamino)-4-phenylpiperidin-1-yl)-2-((methylamino)methyl)pentan-1-one]",< 0.1 µM
18,"CC[C@@H](c1cccc(F)c1)[C@@H](CNC)C(=O)N1CCC(c2ccccc2)(N(C)C)CC1 [Example 21, (2S,3R)-1-(4-(dimethylamino)-4-phenylpiperidin-1-yl)-3-(3-fluorophenyl)-2-((methylamino)methyl)pentan-1-one]",< 0.1 µM
19,"CC[C@@H](c1ccccc1)[C@@H](CNC)C(=O)N1CCC(NC)(c2ccc(OC)cc2)CC1 [Example 22, (2S,3R)-1-(4-(4-methoxyphenyl)-4-(methylamino)piperidin-1-yl)-2-((methylamino)methyl)-3-phenylpentan-1-one dihydrochloride]",< 0.1 µM
20,"CN(C)C1(c2cccc(O)c2)CCN(C(=O)C2NCCc3ccccc32)CC1 (stereo not shown) [Example 35, (4-(dimethylamino)-4-(3-hydroxyphenyl)piperidin-1-yl)(1,2,3,4-tetrahydroisoquinolin-1-yl)methanone dihydrochloride]",< 0.1 µM
21,"CNCC(Cc1ccccc1)C(=O)N1CCC(c2cccc(OC)c2)(N(C)C)CC1 (stereo not shown) [Example 41, 2-benzyl-1-(4-(dimethylamino)-4-(3-methoxyphenyl)piperidin-1-yl)-3-(methylamino)propan-1-one dihydrochloride]",< 0.1 µM
22,"C[C@H](N)[C@H](Cc1ccccc1)C(=O)N1CCC(c2ccccc2)(N(C)C)CC1 [Example 48, (2S,3S)-3-amino-2-benzyl-1-(4-(dimethylamino)-4-phenylpiperidin-1-yl)butan-1-one dihydrochloride]",< 0.1 µM
23,"C[C@@H](N)[C@@H](Cc1ccccc1)C(=O)N1CCC(c2ccccc2)(N(C)C)CC1 [Example 49, (2R,3R)-3-amino-2-benzyl-1-(4-(dimethylamino)-4-phenylpiperidin-1-yl)butan-1-one dihydrochloride]",0.1 to 0.5 µM
